Results on one molecule are retold here after patent publication US10537523B2, “Oral suspension comprising telmisartan” (Boehringer Ingelheim Vetmedica GmbH, priority 2009, dated 2020).

The data set is described as follows: pH-dependent solubility of telmisartan in aqueous formulation. The format is physicochemical. The conditions noted are these: concentrations of active substance greater than 1 mg/ml. An excerpt: The aim of the present invention is to provide a pharmaceutical solution, preferably a drinkable pharmaceutical solution containing an angiotensin-II-receptor antagonist. Preferred angiotensin II receptor antagonists are the substances known by the following INN names: candesartan, eprosartan, irbesartan, losartan, olmesartan, tasosartan, telmisartan and valsartan, and the pharmaceutically acceptable salts, hydrates or polymorphs thereof. The concentration of the angiotensin-II-receptor antagonist, preferably telmisartan, needed in the solution in order to achieve therapeutic doses should be between 1 mg/ml and 10 mg/ml. Moreover, because of the strongly pH-dependent solubility profile of telmisartan an aqueous formulation should have a pH that is either less than 2 or more than 10, in order to ensure a physically stable solution.
The very powerfully astringent effect of such acidic solutions makes acidic formulations of this kind totally unsuitable for long-term use particularly in children but also in domestic pets such as dogs and cats.
It has thus been shown that the stability of a drinkable telmisartan solution is dependent on the amount of reducing sugar contained in the sugar alcohol. The stability of a drinkable telmisartan solution deteriorates as the content of reducing sugars increases. […]

Regarding `CCCc1nc2c(C)cc(-c3nc4ccccc4n3C)cc2n1Cc1ccc(-c2ccccc2C(=O)O)cc1` [telmisartan, 4′-((2-n-propyl-4-methyl-6-(1-methylbenz-imidazol-2-yl)-benzimidazol-1-yl)methyl)biphenyl-2-carboxylic acid], the “pH needed for dissolved active substance in acid range” value is given as “less than 1.5”.
